Laboratory results: the OligoGym collection
“And” between values parts separate entries of the source, which are not always exact repeats. Identical values can stand only once. After the bases stand the sugars from the 5' end (letter, count) and the backbone: PS all phosphorothioate, else s phosphorothioate and o phosphodiester by linkage. Methylation of C is not given here. e = 2'-O-(2-methoxyethyl) (MOE); k = constrained ethyl (cEt); d = 2'-deoxy (DNA); m = 2'-O-methyl

Molecular target: HSD17B13
Details: ASO, HepaRG

Sequence	target mRNA inhibition (1 µM)	other results
ATTACAACCTGGTTTC (sugars k3 d10 k3, PS)	50%	
AATTCTATAGCTAAGT (sugars k3 d10 k3, PS)	9%	
GTATGTTTATGTAAGC (sugars k3 d9 k3 e1, PS)	71%	
AGAGAGTAATCAGTTT (sugars k3 d1 m1 d8 k3, PS)	25%	
TTTGGTGAACCCAGTA (sugars k3 d10 k3, PS)	34%	
GATGGTGATCAGAAGC (sugars k3 d10 k3, PS)	52%	
TTGCAGAAATTCACCT (sugars k3 d9 k3 e1, PS)	29%	
CAAGAGACACCACCAG (sugars k3 d10 k3, PS)	50%	
CAGCCTTAGAGTGAAT (sugars k3 d10 k3, PS)	82%	target mRNA inhibition (0.02 µM): 6%; target mRNA inhibition (0.078 µM): 23%; target mRNA inhibition (0.313 µM): 36%; target mRNA inhibition (1.25 µM): 73%; target mRNA inhibition (5 µM): 83%
AGGATAGTCCATGCAA (sugars kkdddddddddkekek, PS)	46%	
TGGGTCCATTGTTTCT (sugars k3 d10 k3, PS)	35%	
TAATTAATCTTGTTCG (sugars k3 d10 k3, PS)	63%	
CACCACGATTGTTACA (sugars k3 d10 k3, PS)	36%	
AAATTCATAAGTAGTC (sugars k3 d10 k3, PS)	39%	
GGCATGGCTACAGATT (sugars k3 d10 k3, PS)	69%	
TGTTATCAGAAACTTA (sugars k3 d10 k3, PS)	44%	
GGATCTAGAACACTTG (sugars k3 d10 k3, PS)	32%	
CTTACATATTGCATAC (sugars k3 d10 k3, PS)	35%	
TGTAGTCCTAGGGAGG (sugars k3 d10 k3, PS)	86%	target mRNA inhibition (0.02 µM): 0%; target mRNA inhibition (0.078 µM): 0%; target mRNA inhibition (0.313 µM): 32%; target mRNA inhibition (1.25 µM): 66%; target mRNA inhibition (5 µM): 83%
TGCTTTAGCTTAAACT (sugars k3 d10 k3, PS)	51%	
GAACAGTCTTAAACCT (sugars k3 d10 k3, PS)	64%	
GTCTTGATGTAGTGGG (sugars k3 d9 k3 e1, PS)	70%	
TATTATGCACTCTATA (sugars k3 d10 k3, PS)	9%	
TGTTGATATTCTGTGG (sugars k3 d10 k3, PS)	68%	
GTAGGCTAAACCCTGG (sugars k3 d10 k3, PS)	62%	

Sequence	target mRNA inhibition (1 µM)	other results
AATTGTCTAAACATCT (sugars k3 d10 k3, PS)	62%	
CTACAAAACTGGTATC (sugars k3 d10 k3, PS)	0%	
GGTCATTTAGAATACG (sugars k3 d10 k3, PS)	39%	
TTGCAGTTATTAGAAG (sugars k3 d10 k3, PS)	13%	
ATCTAGCAACCTCTAT (sugars k3 d10 k3, PS)	12%	
GTCCAGGTTGAGATAA (sugars k3 d1 m1 d8 k3, PS)	68%	
GAAACTTGATCTCTTA (sugars k3 d10 k3, PS)	64%	
TGAGAACAATCTCCCC (sugars k3 d10 k3, PS)	69%	target mRNA inhibition (0.02 µM): 12%; target mRNA inhibition (0.078 µM): 30%; target mRNA inhibition (0.313 µM): 57%; target mRNA inhibition (1.25 µM): 84%; target mRNA inhibition (5 µM): 90%
CATCUTAAGATACCCA (sugars k3 d1 m1 d8 k3, PS)	56%	
GCATCTTAAGATACCC (sugars k3 d9 k3 e1, PS)	84%	target mRNA inhibition (0.02 µM): 28%; target mRNA inhibition (0.078 µM): 34%; target mRNA inhibition (0.313 µM): 58%; target mRNA inhibition (1.25 µM): 81%; target mRNA inhibition (5 µM): 83%
TTCACAAAAACTGGGC (sugars k3 d10 k3, PS)	37%	
TCATAAACATAGGCTT (sugars k3 d10 k3, PS)	58%	
ATTATTATGTGATTGA (sugars k3 d10 k3, PS)	39%	
CTTATTGGTAAGTATT (sugars k3 d10 k3, PS)	22%	
CTCAACAGAGAATTGT (sugars k3 d10 k3, PS)	29%	
CCAAAGATGAGAGTCT (sugars k3 d10 k3, PS)	19%	
GAGTAGATGATGGTGA (sugars k3 d10 k3, PS)	28%	
CTGTGGCATGGCTACA (sugars kkdddddddddkekek, PS)	33%	
TCTTAAGATACCCAGG (sugars kkdddddddddkekek, PS)	35%	
CCTCTAAGTTAGCCCC (sugars k3 d10 k3, PS)	97%	
AACACTAATCTCAGTA (sugars k3 d10 k3, PS)	15%	
AGTCTGCCTGCCTATT (sugars k3 d10 k3, PS)	47%	
ACTCGGGAAGTTTAGA (sugars k3 d10 k3, PS)	26%	
TAGAGTCGGTCACCTT (sugars kkdddddddddkekek, PS)	48%	
CTGGAGAAGAGTTTAC (sugars k3 d10 k3, PS)	38%	

Sequence	target mRNA inhibition (1 µM)	other results
TACTTACTTCTGTAGT (sugars k3 d10 k3, PS)	12%	
TATGTAATAGGCAGTA (sugars k3 d10 k3, PS)	62%	
TAGTACCAAGACACTA (sugars k3 d10 k3, PS)	27%	
GTATCTTATAAGACTA (sugars k3 d9 k3 e1, PS)	72%	
ATCAAGACATTCTAGC (sugars kkdddddddddkekek, PS)	30%	
CAATTATGAATCTGCA (sugars k3 d10 k3, PS)	25%	
ACAGGTAATTAATCTT (sugars k3 d10 k3, PS)	39%	
TTATGTAATAGCCAGT (sugars k3 d9 k3 e1, PS)	77%	target mRNA inhibition (0.02 µM): 0%; target mRNA inhibition (0.078 µM): 13%; target mRNA inhibition (0.313 µM): 14%; target mRNA inhibition (1.25 µM): 74%; target mRNA inhibition (5 µM): 92%
ATGATGTTCATGGCTT (sugars k3 d10 k3, PS)	72%	
TAAATCAGGCAGTCAT (sugars k3 d10 k3, PS)	35%	
CACAAGTAAGGTAAAG (sugars k3 d9 k3 e1, PS)	55%	
TTGAACCGTATTCCCA (sugars k3 d10 k3, PS)	76%	
CCTCGATCCTATATAC (sugars k3 d9 k3 e1, PS)	11%	
ATCTUATAAGACTATA (sugars k3 d1 m1 d8 k3, PS)	35%	
TGAATGTAAAGGCTGG (sugars k3 d10 k3, PS)	38%	
TAGTAATCACAAGTAA (sugars k3 d9 k3 e1, PS)	65%	
CCAACCAAACTTCCAG (sugars k3 d10 k3, PS)	70%	
CATAGTTCAAATTGGA (sugars k3 d10 k3, PS)	39%	
GCTGGATATACTGTCC (sugars k3 d10 k3, PS)	36%	
AATAGAGTCGGTCACC (sugars k3 d9 k3 e1, PS)	58%	
CTATAGTAATCACAAG (sugars k3 d1 m1 d8 k3, PS)	37%	
CTAGGATTAATCATGG (sugars k3 d10 k3, PS)	65%	
GCAGAAATTCACCTTG (sugars kkdddddddddkekek, PS)	53%	
AACTTCACCAACGACT (sugars k3 d10 k3, PS)	0%	
AACAATCAGGAGTTGC (sugars k3 d10 k3, PS)	31%	

Sequence	target mRNA inhibition (1 µM)	other results
TGATATGTCAATACTC (sugars k3 d10 k1 d1 k1, PS)	57%	
TAATTCTAAACTAGTG (sugars k3 d10 k3, PS)	11%	
TGCTGCTAGTGCCAAA (sugars k3 d9 k3 e1, PS)	56%	
CTAGTGGTAATGGTAA (sugars k3 d10 k3, PS)	62%	
TATCAGACTTCTTACG (sugars k3 d9 k3 e1, PS)	28%	
CATTTGAAGTCTATAC (sugars k3 d10 k3, PS)	21%	
TCCAAAGATGAGAGTC (sugars k3 d10 k3, PS)	17%	
CTTAAACCTTCCCTGT (sugars k3 d9 k3 e1, PS)	34%	
TCTTACGACTTCATCT (sugars k3 d10 k3, PS)	34%	
AGGGAATGTTATGTAC (sugars k3 d10 k3, PS)	49%	
TAATACATTAGCAAGC (sugars k3 d1 m1 d8 k3, PS)	26%	
GTTGATATTCTGTGGC (sugars k3 d9 k3 e1, PS)	73% and 50%	target mRNA inhibition (0.02 µM): 23%; target mRNA inhibition (0.078 µM): 17%; target mRNA inhibition (0.313 µM): 49%; target mRNA inhibition (1.25 µM): 61%; target mRNA inhibition (5 µM): 55%
TACATATCAATGCCTT (sugars k3 d10 k3, PS)	38%	
GCTACTTGAACAGTCT (sugars k3 d9 k3 e1, PS)	60%	
AATAATAGCTCTATTG (sugars k3 d9 k3 e1, PS)	3%	
CGTCAAATAGGGCTGG (sugars k3 d10 k3, PS)	53%	
GCTACTTGAACAGTCT (sugars k3 d1 m1 d8 k3, PS)	82%	
TATAGACTGGGTAGGA (sugars k3 d9 k3 e1, PS)	55%	
ATTTAGGGCAAACCTT (sugars k3 d10 k3, PS)	35%	
TGCTGCTAGTGCCAAA (sugars kkdddddddddkekek, PS)	40%	
CAAGGAAAAGCCTGAC (sugars k3 d10 k3, PS)	59%	
CCAGTACAGTTCCTTT (sugars k3 d10 k3, PS)	66%	target mRNA inhibition (0.02 µM): 38%; target mRNA inhibition (0.078 µM): 37%; target mRNA inhibition (0.313 µM): 53%; target mRNA inhibition (1.25 µM): 75%; target mRNA inhibition (5 µM): 89%
AAGACATTCTAGCCTG (sugars k3 d9 k3 e1, PS)	40%	
